Results published in publication PMC7026080, “Phenotypic high-throughput screening platform identifies novel chemotypes for necroptosis inhibition” (Cell Death Discovery, 2020).
Where two headings read alike, the source gives them in different places.

Assays:
[1] = Mouse pharmacokinetics, i.v.; format: in vivo; conditions: plasma, iv, male C57BL/6J mice, 5 mg/kg i.v.; for AUC: read-out: Mouse AUC (in vivo); for Cmax: read-out: Mouse Cmax (in vivo); for clearance: read-out: Mouse clearance (in vivo) rate; for half-life: read-out: Mouse half-life (in vivo) T1/2 (converted); for Tmax: read-out: Tmax (in vivo)
Description: Pharmacokinetic measurements. Pharmacokinetic studies were performed in male C57BL/6J mice by Pharmaron (Pharmaron Beijing Co Ltd, Beijing, China). Compound (5 mg/kg body weight) was administered intravenously in vehicle (57% PBS, 32% DMSO, 4% PEG 400, 3% ethanol, 4% Tween 80). Blood samples obtained postdosing were collected in plastic microcentrifuge tubes containing EDTA-K2 and centrifuged at 4000 × g for 5 min to obtain plasma. The concentration of compound in plasma samples was determined using a liquid chromatography-tandem mass spectrometry (LC-MS/MS) method by monitoring transition from m/z 541 to 383 in ESI-positive mode. PK parameters were calculated by non-compartmental model using Phoenix WinNonlin v. 6.1 (Pharsight Corp, Certara, St. Louis, MO, USA).

L929 cells = assay: Necroptosis inhibition in L929 cells + mTNF-α, 8 h, AK release; format: cell-based, murine; conditions: for EC50: Mus musculus, L929
Description: A total of 251,328 small-molecule compounds were screened in L929 cells incubated with mTNF-α alone or together with test compounds at 31.7 μM for 8 h. Intraplate controls for data normalization consisted of untreated cell wells. L929 cells co-incubated with mTNF-α and SN-2668/Nec-1 served as positive controls (Fig. S2A). […] In HTS step one (primary screening), valid data was obtained for 247,738 compounds, 3353 of which were within the established hit selection criteria, corresponding to a 1.4% hit rate for the full library (Fig. 1a).
The second screening step aimed to determine the EC50 of selected compounds. L929 and Jurkat FADD^-/- cells were co-incubated with TNF-α and test compounds at 10-point concentration range (0.004–100 μM) for 8 h. Compound-mediated inhibition of necroptosis was assessed through AK release and the EC50 calculated. Jurkat cells were used to validate results in human cells. […] In HTS step two, 4374 compounds (3353 hits from HTS step one plus 1021 near neighbours) were evaluated for potency by dose-response curves. From those, 1,438 hit compounds passed the selection criteria on both cell lines, corresponding to a […] hit rate.
L929 cells were co-incubated for 8 h with mTNF-α and test compounds at 31.7 μM after which AK release was measured. […] Hit compounds were then evaluated for apoptosis modulation. Further details are provided as Supplementary Information.
Cell treatments and viability assays. Cells were seeded in 384- or 96-well plates at 1000 or 8000 cells/well (in 12.5 μL or 100 μL final volume), respectively, using a Multidrop^TM Combi Reagent Dispenser (ThermoFisher Scientific). For inducing necroptosis, L929 and Jurkat FADD^-/- cells were incubated with 10 ng/mL mTNF-α and hTNF-α respectively; BV2 cells with 25 µM Z-VAD-FMK, and HT29 cells with 20 ng/mL hTNF-α, 250 nM Smac mimetic BV6 and 10 μM Z-VAD-FMK. Cells were co-incubated in the presence of test compounds at target concentrations for 8 or 24 h. Nec-1 at 29.2 μM was used as positive control. For apoptosis assays, Jurkat E6.1 cells were co-incubated with 0.5 μg/mL CHX and test compounds at target concentrations for 8 h. In cytotoxicity assays, HepG2 and L929 cells were seeded in 96-well plates at 5000 cells/well, in 100 μL final volume. Twenty-four hours after seeding, cells were incubated with test compounds at 50 and 100 μM for additional 24 h.
Adenylate kinase (AK) and lactate dehydrogenase (LDH) release from damaged cells were measured using the Toxilight BioAssay Kit (Lonza, Basel, Switzerland) and the Cytotoxicity Detection Kit (Roche Diagnostics GmbH, Mannheim, Germany), respectively. Adenosine triphosphate (ATP) metabolism was evaluated using CellTiter-Glo^TM Luminescent Cell Viability Assay (Promega, Madison, WI, USA). Apoptosis was determined by the measurement of caspase-3/-7 activity using the Caspase-Glo® 3/7 Assay (Promega) according to the manufacturer’s instructions. Cellular metabolic activity was measured using CellTiter 96® Aqueous Non-Radioactive Cell Proliferation (MTS) Assay (Promega). Luminescence signal was recorded using a GloMax®-MultiDetection System (Promega) and absorbance with a Model 680 microplate reader (Bio-Rad Laboratories Inc, Hercules, CA, USA).
Primary high-throughput screen. Test compounds were arrayed in 384-well white microtiter plates and screened for their potential as necroptosis inhibitors at 32 μM target concentration. Eight hours after co-incubation of L929 cells with mTNF-α and test compounds, AK release was evaluated. […]

HT29 cells = assay: Necroptosis protection in HT29 cells (TNF-α + Smac mimetic + Z-VAD-FMK), 24 h; format: cell-based, human; conditions: compounds at 10 μM, hTNF-α + Smac mimetic + Z-VAD-FMK
Description: (§1) Necroptosis inhibition properties were further examined using two additional cellular models of regulated necrosis. First, in human adenocarcinoma HT29 cells, and then in immortalized murine microglial BV2 cells, where we co-incubated a mixture of human or murine TNF-α, Smac mimetic […], pan-caspase inhibitor Z-VAD-FMK[29] or Z-VAD-FMK alone, and tested compounds at 10 μM for 24 h. […] In parallel, preliminary data for compound liver toxicity was extrapolated using HepG2 cells.
(§2) Fig. 3 Secondary-stage cascade for hit validation and compound refinement for further studies. a Compound ability to prevent necroptosis execution in HT29 cells co-incubated with 20 ng/mL hTNF-α (T) together with 250 nM Smac mimetic BV6 (S) and […] Z-VAD-FMK (Z), and selected compounds at 10 μM for 24 h. b Selected compound ability to prevent necroptosis execution in BV2 cells co-incubated with 25 μM Z-VAD-FMK (Z) and compounds at 10 μM for 24 h. c Selected compound toxicity evaluation in HepG2 cells incubated with test compounds at 100 and 50 μM for 24 h. Data represent mean values ± SEM of three independent experiments normalized to untreated control. Cell viability was assessed using a luminescence-based readout for AK release and ATP production, and a colorimetric-based readout for LDH release and MTS metabolism. ns, not significant; *p < 0.05, ***p < 0.001.
(§3) Cell treatments and viability assays. […]

MDR1 = assay: MDCK-MDR1 cell-based permeability assay; format: in vitro ADME; conditions: dog
BV2 cells = assay: Necroptosis protection in BV2 cells (Z-VAD-FMK), 24 h; format: cell-based, murine; conditions: compounds at 10 μM, 25 μM Z-VAD-FMK
Description: as §1, §2, §3

[2] = 8 h, 10 ng/mL mTNF-α, AK release, screening step 1 as printed, read-out: EC50 L929 + TNF-α (in vitro)
[3] = read-out: L929 + TNF-α (in vitro) pEC50 (converted)

| SMILES | AUC [1] [µM·h] | Cmax [1] [µM] | clearance [1] [mL/min/kg] | half-life [1] [min] | Tmax [1] [min] | Membrane integrity (L929 cells; DMSO = 0, no addition = −100, L929, 10 ng/mL mTNF-α, 8 h, Nec-1 at 29.2 μM) | EC50 (L929 cells; [2]) [µM] | EC50 (L929 cells; [3]) [µM] | Protection from necroptosis in HT29 cells (membrane integrity by AK and LDH release, ATP levels) (HT29 cells) | efflux ratio (MDR1) | Protection from necroptosis execution in BV2 cells (BV2 cells) |
| --- | --- | --- | --- | --- | --- | --- | --- | --- | --- | --- | --- |
| CN1C(=O)C(Cc2c[nH]c3ccccc23)NC1=S (stereo not drawn) [Nec-1, necrostatin-1] | 3.21 | 11.3 | 101 | 26.4 | 1.8 | > −100 percentage of control | 1.25 | 1.26 | completely rescued membrane integrity and ensured metabolic cell viability | 0.45 | complete protection against necroptosis execution |
| O=C(c1cnn(Cc2ccccc2)c1)N1CCOc2ccccc2C1 [SN-6109] | 2.34 | 10.2 | 107 | 18.6 | 1.8 | – | 6.3 | 6.31 | – | – | – |
